Measured values published in patent publication US9229008B2, “IL-8 level as a determinant of responsivity of a cancer to treatment” (Merck Sharp & Dohme Corp., priority 2008, dated 2016).

Tested on: IL-8
Assay: IL-8 ELISA of growth media of A2058 melanoma cells
Assay type: cell-based, human
Details: A2058 B-RAF mutant melanoma cells, 8 hours exposure; DMSO control 21024
Experimental: Experiments were also performed wherein A2058 B-RAF mutant melanoma cells were treated with ERK inhibitor #1 (structure set forth herein), ERK inhibitor #2 (structure set forth herein), the PD MEK inhibitor
[drawing 23] or DMSO as a negative-control, for 8 hours.
These experiments were performed using IL-8 ELISAs from R&D Systems (Minneapolis, Minn.). Approximately 1×10^6 A2058 cells were plated onto 10 cm dishes containing 10 ml of growth media. The following day, compound was added and allowed to incubate for 8 hours. The media was removed from the plates, diluted 32× and used in the ELISA.

SMILES	IL-8 levels in growth media
O=C(NOC[C@H](O)CO)c1ccc(F)c(F)c1Nc1ccc(F)cc1F [PD]	2080 pg/mL
Cn1cnc2c(F)c(Nc3ccc(Br)cc3Cl)c(C(=O)NOCCO)cc21 [AR]	1632 pg/mL
